Reference: US20260355330A1, “CELL PENETRATING PEPTIDES AND USES THEREOF” (VECTIOPEP OÜ, priority 2022, published 2026)
Positions of bridges follow the written chain, without caps; N, C: chain ends. Non-standard residues stand in square brackets, D forms with d. Residues, ends and D or L forms follow the SMILES beside them. Chains are numbered I, II in the order given. *: point of attachment. Arachidoyl = CCCCCCCCCCCCCCCCCCCC(=O)*; Stearoyl = CCCCCCCCCCCCCCCCCC(=O)*; Orn = NCCC[C@H](N)C(=O)O; Dab = NCC[C@H](N)C(=O)O

How the values were obtained:
CHO-K1 cells = test: Delivery of reporter mRNA with CPPs in cell culture (luciferase luminescence 24 h post-transfection); format: cell-based; conditions: for Average RLU/mg (reporter levels post-transfection of mRNA): firefly luciferase mRNA, 0.1 μg per well, charge ratio 3:1, serum containing media, 24 h, RLU normalised to total protein in lysate; for Efficiency of mRNA transfection/delivery / Delivery of mRNA compared to NF55 / Delivery of mRNA compared to NF54: in words; for Efficiency of mRNA transfection/delivery: FIG. 1 / Table 2, cell culture; for Delivery of mRNA compared to NF55: comparator NF55; for Delivery of mRNA compared to NF54: comparator NF54
Procedure: FIG. 1: Delivery of reporter mRNA with CPPs in cell culture—evaluation of reporter levels post-transfection (relative light units normalised to total protein in the cell lysate (RLU/mg)). Naked mRNA treated cells were used as controls and Lipofectamine3000 (LF3000) was used to compare the transfection efficacy with a liposome-based transfection reagent.
Adherent CHO-K1 cells were grown in Dulbecco's Modified Eagle's Medium (DMEM), which were supplemented with 0.1 mM non-essential amino acids, 1.0 mM sodium pyruvate, 100 U/ml penicillin, and […]. For complete media, 10% (final) fetal bovine serum (FBS) was added. Cells were maintained in a humidified incubator at 37 °C, 5% CO2. Cell viability and confluence was assessed daily and the cell density was reduced regularly. For cell counting, we used the CytoSMART cell counter accompanied by 0.4% trypan blue staining prior measurement. The multi-well plates with cell cultures used for experiments were incubated in a humidified incubator at 37 °C, 5% CO2.
For in vitro experiments 0.1 μg of nucleic acid (plasmid DNA (pDNA) or mRNA) was used per 96-well plate well. For CPP/NA complex formation, the diluted NA was mixed with CPP in water. Complexes were formed based on the theoretical charge ratio (CR) of positive charges from the peptide in excess to the negative charges from nucleic acid backbone, at charge ratio 3:1 with peptide in excess. Commercial reagent Lipofectamine3000 (LF3000) was used according to the manufacturer's recommendations for the transfection of adherent cells.
For reporter luminescence (expressed from firefly luciferase encoding mRNA or plasmid pDNA) assessment in adherent cell culture, 10,000 cells per 96-well plate well were seeded in 100 μl of media one day prior to transfection. Shortly before transfection, cell media was replaced with 100 μl of serum containing (10% foetal bovine serum) DMEM media. CPPs and mRNA or pDNA were mixed at a charge ratio 3:1 in ultrapure water and incubated at room temperature before addition to cells in serum containing media. Cells were transfected with 0.1 μg of mLuc per well.
24 hours post-transfection, the media was aspirated, cells were washed with 1×PBS, and 30 μl of lysis buffer (0.1% Triton X100 in 1×PBS) was added. Cells were incubated with lysis buffer for 20 min. to lyse the cells. From the lysate, 20 μl was transferred to a black frame white well 96-well plate for luminescence measurement after addition of substrate luciferin (PerkinElmer) in buffer. The luminescence signal was detected with GloMax® 96 microplate luminometer equipped with GloMax® 1.9.2 software (Promega). RLU values were converted to RLU/mg by normalization to total protein in cell lysate, reflecting total number of cells. For protein detection, a Pierce™ BCA Protein Assay Kit was used.
The present inventors have previously reported CPPs developed from the NickFect (NF) and PepFect (PF) families for plasmid (pDNA), siRNA and miRNA delivery (see, e.g. WO 2020/144317, WO 2010/039088 and WO 2012/113846). With the emergence of mRNA-based therapeutics, it was decided to investigate peptides for their ability to deliver mRNA. It was assumed that CPPs that are efficient for siRNA and miRNA delivery, e.g. histidine containing CPPs (Porosk et. al. (2019)), may be good candidates for the delivery of mRNA. Therefore, CPPs from each main family (NF55-, PF14- and NF70-derived CPPs) were tested for mRNA delivery/transfection. Naked mRNA treated and untreated cells were used as control groups. LF3000 was used to compare the transfection efficacy of liposome-based transfection reagents with the CPPs (FIG. 1).

spleen of BALB/c mice = test: In vivo delivery of mRNA with CPPs - reporter levels in the spleen; conditions: for Reporter levels in the spleen (RLU): mRNA, tail vein injection, spleens harvested 16 hours after single injection, whole tissue homogenate; for Efficacy of mRNA delivery into the spleen in vivo: FIG. 5 / Table 5
Procedure: FIG. 5: Delivery of mRNA with CPPs in vivo—reporter levels in the spleen. Spleens were harvested post mortem 16 hours post-injection. The reporter levels (RLU) were evaluated from the whole tissue homogenate.
The transfection complexes (CPP/mRNA) were formed using 10 μg of mRNA mixed with each peptide at indicated charge ratios (CRs) in MQ water in a final volume of 100 μl. CRs were calculated theoretically and account for both the positive charges of the peptide and negative charges of the nucleic acid. The transfection complexes (CPP/mRNA and CPP/pDNA) were formed using 50 μg of mRNA mixed with each peptide at indicated charge ratios (CRs) in MQ water in a final volume of 168 μl. The complexes were incubated for 30 minutes at room temperature and then mixed with equal volume of 10% glucose (resulting in a final solution of 5% glucose in a total volume of 200 μl for 10 μg dose groups and 336 μl for 50 μg dose groups) and immediately injected intravenously via the tail vein.
The reporter gene (luciferase) expression levels were evaluated from the tissue homogenate post mortem 16-24 h after single injection.
CPPs and mRNA complexes were injected through the tail vein of BALB/c mice, spleens were harvested 16 hours after the single injection and reporter signal was measured from the whole tissue homogenate (FIG. 5 and Table 5).

| Compound | Average RLU/mg (reporter levels post-transfection of mRNA) (CHO-K1 cells) | Efficiency of mRNA transfection/delivery (CHO-K1 cells) | Delivery of mRNA compared to NF55 (CHO-K1 cells) | Reporter levels in the spleen (RLU) (spleen of BALB/c mice) | Efficacy of mRNA delivery into the spleen in vivo (spleen of BALB/c mice; in words) | Delivery of mRNA compared to NF54 (CHO-K1 cells) | Delivery of mRNA in vivo compared to NF54 and/or NF55 (spleen of BALB/c mice; in words, comparator NF54 and/or NF55) |
| --- | --- | --- | --- | --- | --- | --- | --- |
| CCCCCCCCCCCCCCCCCC(=O)N[C@@H](C)C(=O)NCC(=O)N[C@@H](Cc1ccc(O)cc1)C(=O)N[C@@H](CC(C)C)C(=O)N[C@@H](CC(C)C)C(=O)NCC(=O)NCC[C@H](N)C(=O)N[C@H](C(=O)N[C@@H](CC(N)=O)C(=O)N[C@@H](CC(C)C)C(=O)N[C@@H](CCCCN)C(=O)N[C@@H](C)C(=O)N[C@@H](CC(C)C)C(=O)N[C@@H](C)C(=O)N[C@@H](C)C(=O)N[C@@H](CC(C)C)C(=O)N[C@@H](C)C(=O)N[C@@H](CCCCN)C(=O)N[C@@H](C)C(=O)N[C@H](C(=O)N[C@@H](CC(C)C)C(N)=O)[C@@H](C)CC)[C@@H](C)CC [NF553] | 1 750 000 000 RLU/mg | the most efficient | improved delivery of mRNA over NF55 | 57 989 RLU | – | – | – |
| CCCCCCCCCCCCCCCCCC(=O)N[C@@H](C)C(=O)NCC(=O)N[C@@H](Cc1ccc(O)cc1)C(=O)N[C@@H](CC(C)C)C(=O)N[C@@H](CC(C)C)C(=O)NCC(=O)NCCC[C@H](N)C(=O)N[C@@H](CC(C)C)C(=O)N[C@@H](CCCCN)C(=O)N[C@@H](C)C(=O)N[C@@H](CC(C)C)C(=O)N[C@@H](C)C(=O)N[C@@H](C)C(=O)N[C@@H](CC(C)C)C(=O)N[C@@H](C)C(=O)N[C@@H](CCCCN)C(=O)N[C@@H](C)C(=O)N[C@H](C(=O)N[C@@H](CC(C)C)C(N)=O)[C@@H](C)CC [NF430] (I: H-[Orn]LKALAALAKAIL-NH2 / II: Stearoyl-AGYLLG; amide I:1-II:C) | 766 000 000 RLU/mg | – | – | 405 318 RLU | highest reporter levels after mRNA delivery into the spleen in vivo | – | – |
| CCCCCCCCCCCCCCCCCCCC(=O)N[C@@H](C)C(=O)NCC(=O)N[C@@H](Cc1ccc(O)cc1)C(=O)N[C@@H](CC(C)C)C(=O)N[C@@H](CC(C)C)C(=O)NCC(=O)NCC[C@H](N)C(=O)N[C@@H](CC(C)C)C(=O)N[C@@H](CCCCN)C(=O)N[C@@H](C)C(=O)N[C@@H](CC(C)C)C(=O)N[C@@H](C)C(=O)N[C@@H](C)C(=O)N[C@@H](CC(C)C)C(=O)N[C@@H](C)C(=O)N[C@@H](CCCCN)C(=O)N[C@@H](C)C(=O)N[C@H](C(=O)N[C@@H](CC(C)C)C(N)=O)[C@@H](C)CC [NF426] (I: H-[Dab]LKALAALAKAIL-NH2 / II: Arachidoyl-AGYLLG; amide I:1-II:C) | 1 960 000 000 RLU/mg | the most efficient | good improvement in delivery of mRNA over NF55 | 259 807 RLU | delivered mRNA into the spleen in vivo with high efficacy | equivalent delivery of cargo such as mRNA to NF54 | good improvement in mRNA delivery in vivo over NF55 |
| CCCCCCCCCCCCCCCCCCCCCC(=O)N[C@@H](C)C(=O)NCC(=O)N[C@@H](Cc1ccc(O)cc1)C(=O)N[C@@H](CC(C)C)C(=O)N[C@@H](CC(C)C)C(=O)NCC(=O)NCCC[C@H](N)C(=O)N[C@H](C(=O)N[C@@H](CC(N)=O)C(=O)N[C@@H](CC(C)C)C(=O)N[C@@H](CCCCN)C(=O)N[C@@H](C)C(=O)N[C@@H](CC(C)C)C(=O)N[C@@H](C)C(=O)N[C@@H](C)C(=O)N[C@@H](CC(C)C)C(=O)N[C@@H](C)C(=O)N[C@@H](CCCCN)C(=O)N[C@@H](C)C(=O)N[C@H](C(=O)N[C@@H](CC(C)C)C(N)=O)[C@@H](C)CC)[C@@H](C)CC [NF411] | 2 090 000 000 RLU/mg | the most efficient | good improvement in delivery of mRNA over NF55 | 161 716 RLU | delivered mRNA into the spleen in vivo with high efficacy | equivalent delivery of mRNA to NF54 | – |
| CCCCCCCCCCCCCCCCCCCC(=O)N[C@@H](C)C(=O)NCC(=O)N[C@@H](Cc1ccc(O)cc1)C(=O)N[C@@H](CC(C)C)C(=O)N[C@@H](CC(C)C)C(=O)NCC(=O)NCCCC[C@H](N)C(=O)N[C@H](C(=O)N[C@@H](CC(N)=O)C(=O)N[C@@H](CC(C)C)C(=O)N[C@@H](CCCCN)C(=O)N[C@@H](C)C(=O)N[C@@H](CC(C)C)C(=O)N[C@@H](C)C(=O)N[C@@H](C)C(=O)N[C@@H](CC(C)C)C(=O)N[C@@H](C)C(=O)N[C@@H](CCCCN)C(=O)N[C@@H](C)C(=O)N[C@H](C(=O)N[C@@H](CC(C)C)C(N)=O)[C@@H](C)CC)[C@@H](C)CC [NF412] (I: H-KINLKALAALAKAIL-NH2 / II: Arachidoyl-AGYLLG; amide I:1-II:C) | 393 000 000 RLU/mg | – | – | 36 759 RLU | – | – | – |
| CCCCCCCCCCCCCCCC(=O)N[C@@H](C)C(=O)NCC(=O)N[C@@H](Cc1ccc(O)cc1)C(=O)N[C@@H](CC(C)C)C(=O)N[C@@H](CC(C)C)C(=O)NCC(=O)NCC[C@H](N)C(=O)N[C@H](C(=O)N[C@@H](CC(N)=O)C(=O)N[C@@H](CC(C)C)C(=O)N[C@@H](CCCCN)C(=O)N[C@@H](C)C(=O)N[C@@H](CC(C)C)C(=O)N[C@@H](C)C(=O)N[C@@H](C)C(=O)N[C@@H](CC(C)C)C(=O)N[C@@H](C)C(=O)N[C@@H](CCCCN)C(=O)N[C@@H](C)C(=O)N[C@H](C(=O)N[C@@H](CC(C)C)C(N)=O)[C@@H](C)CC)[C@@H](C)CC [NF422] | 159 000 000 RLU/mg | – | – | – | – | – | – |
| CCCCCCCCCCCCCCCCCCCCCC(=O)N[C@@H](C)C(=O)NCC(=O)N[C@@H](Cc1ccc(O)cc1)C(=O)N[C@@H](CC(C)C)C(=O)N[C@@H](CC(C)C)C(=O)NCC(=O)NCC[C@H](N)C(=O)N[C@H](C(=O)N[C@@H](CC(N)=O)C(=O)N[C@@H](CC(C)C)C(=O)N[C@@H](CCCCN)C(=O)N[C@@H](C)C(=O)N[C@@H](CC(C)C)C(=O)N[C@@H](C)C(=O)N[C@@H](C)C(=O)N[C@@H](CC(C)C)C(=O)N[C@@H](C)C(=O)N[C@@H](CCCCN)C(=O)N[C@@H](C)C(=O)N[C@H](C(=O)N[C@@H](CC(C)C)C(N)=O)[C@@H](C)CC)[C@@H](C)CC [NF423] | 556 000 000 RLU/mg | – | – | – | – | – | – |
| NF72: SEQ ID NO: 15; HHHHHHYHHGO*ILLKALKALAKAIL; control/comparator construct [reference compound] | 78 023 RLU/mg | – | – | – | – | – | – |
